Reference: patent publication US20070167631A1, “Novel herbicides” (priority 2003, published 2007)

These molecules were tested on Panicum (assay: Pre-emergence herbicidal action (Example B1)). Conditions: 250 g/ha, after 4 weeks, rating scale 10=total damage, 0=no action.
Assay type: in vivo
Description: (§1) Monocotyledonous and dicotyledonous test plants are sown in standard soil in pots or seed trays. Immediately after sowing, the test compounds, in the form of an aqueous suspension (prepared from a wettable powder (Example F3, b) according to WO 97/34485) or in the form of an emulsion (prepared from an emulsifiable concentrate (Example F1, c) according to WO 97/34485), are applied by spraying in a concentration of 250 g/ha. The test plants are then grown in a greenhouse under optimum conditions. After a test duration of 4 weeks, the test is evaluated in accordance with a scale of eleven ratings (10=total damage, 0=no action). Ratings of from 10 to 7 (especially from 10 to 8) indicate very good to good herbicidal action.
`CC1(C)C(=O)C(C(=O)c2ccc(C(F)(F)F)c(N3CCSCC3)n2)=C(O)C(C)(C)C1=O` [Compound 2.078] was tested, and the “Pre-emergence action: Panicum” value was 10. For `CC1(C)C(=O)C(C(=O)c2ccc(C(F)(F)F)c(C3(C)OCCO3)n2)=C(O)C(C)(C)C1=O` [Compound 2.191], the “Pre-emergence action: Panicum” value was 10. With `Cc1nc(C(=O)C2=C(O)C(C)(C)C(=O)C(C)(C)C2=O)ccc1C#N` [Compound 2.209] the “Pre-emergence action: Panicum” value was 10.

These molecules were tested on Scirpus (assay: Pre-emergence herbicidal action (Example B1)). Conditions: 250 g/ha, after 4 weeks, rating scale 10=total damage, 0=no action.
Assay type: in vivo
Description: as §1
With `CC1(C)C(=O)C(C(=O)c2ccc(C(F)(F)F)c(N3CCSCC3)n2)=C(O)C(C)(C)C1=O` [Compound 2.078] the “Pre-emergence action: Scirpus” value was 0. With `CC1(C)C(=O)C(C(=O)c2ccc(C(F)(F)F)c(C3(C)OCCO3)n2)=C(O)C(C)(C)C1=O` [Compound 2.191] the “Pre-emergence action: Scirpus” value was 3. For `Cc1nc(C(=O)C2=C(O)C(C)(C)C(=O)C(C)(C)C2=O)ccc1C#N` [Compound 2.209], the “Pre-emergence action: Scirpus” value was 2.

What follows are molecules tested on Echinochloa (assay: Pre-emergence herbicidal action (Example B1)). Conditions: 250 g/ha, after 4 weeks, rating scale 10=total damage, 0=no action.
Assay type: in vivo
Description: as §1
With `CC1(C)C(=O)C(C(=O)c2ccc(C(F)(F)F)c(N3CCSCC3)n2)=C(O)C(C)(C)C1=O` [Compound 2.078] the “Pre-emergence action: Echinochloa” value was 10. `CC1(C)C(=O)C(C(=O)c2ccc(C(F)(F)F)c(C3(C)OCCO3)n2)=C(O)C(C)(C)C1=O` [Compound 2.191] was tested, and the “Pre-emergence action: Echinochloa” value was 10. In the case of `Cc1nc(C(=O)C2=C(O)C(C)(C)C(=O)C(C)(C)C2=O)ccc1C#N` [Compound 2.209], the “Pre-emergence action: Echinochloa” value is reported as 10.

These molecules were tested on Chenopodium (assay: Pre-emergence herbicidal action (Example B1)). Conditions: 250 g/ha, after 4 weeks, rating scale 10=total damage, 0=no action.
Assay type: in vivo
Description: as §1
In the case of `CC1(C)C(=O)C(C(=O)c2ccc(C(F)(F)F)c(N3CCSCC3)n2)=C(O)C(C)(C)C1=O` [Compound 2.078], the “Pre-emergence action: Chenopodium” value is reported as 10. In the case of `CC1(C)C(=O)C(C(=O)c2ccc(C(F)(F)F)c(C3(C)OCCO3)n2)=C(O)C(C)(C)C1=O` [Compound 2.191], the “Pre-emergence action: Chenopodium” value is reported as 9. With `Cc1nc(C(=O)C2=C(O)C(C)(C)C(=O)C(C)(C)C2=O)ccc1C#N` [Compound 2.209] the “Pre-emergence action: Chenopodium” value was 9.

The molecules below were run on Digitaria (assay: Pre-emergence herbicidal action (Example B1)). Conditions: 250 g/ha, after 4 weeks, rating scale 10=total damage, 0=no action.
Assay type: in vivo
Description: as §1
In the case of `CC1(C)C(=O)C(C(=O)c2ccc(C(F)(F)F)c(N3CCSCC3)n2)=C(O)C(C)(C)C1=O` [Compound 2.078], the “Pre-emergence action: Digitaria” value is reported as 10. For `CC1(C)C(=O)C(C(=O)c2ccc(C(F)(F)F)c(C3(C)OCCO3)n2)=C(O)C(C)(C)C1=O` [Compound 2.191], the “Pre-emergence action: Digitaria” value was 7. `Cc1nc(C(=O)C2=C(O)C(C)(C)C(=O)C(C)(C)C2=O)ccc1C#N` [Compound 2.209] was tested, and the “Pre-emergence action: Digitaria” value was 8.

The molecules below were run on Abutilon (assay: Pre-emergence herbicidal action (Example B1)). Conditions: 250 g/ha, after 4 weeks, rating scale 10=total damage, 0=no action.
Assay type: in vivo
Description: as §1
In the case of `CC1(C)C(=O)C(C(=O)c2ccc(C(F)(F)F)c(N3CCSCC3)n2)=C(O)C(C)(C)C1=O` [Compound 2.078], the “Pre-emergence action: Abutilon” value is reported as 10. With `CC1(C)C(=O)C(C(=O)c2ccc(C(F)(F)F)c(C3(C)OCCO3)n2)=C(O)C(C)(C)C1=O` [Compound 2.191] the “Pre-emergence action: Abutilon” value was 10. With `Cc1nc(C(=O)C2=C(O)C(C)(C)C(=O)C(C)(C)C2=O)ccc1C#N` [Compound 2.209] the “Pre-emergence action: Abutilon” value was 10.

The molecules below were run on Amaranthus (assay: Pre-emergence herbicidal action (Example B1)). Conditions: 250 g/ha, after 4 weeks, rating scale 10=total damage, 0=no action.
Assay type: in vivo
Description: as §1
With `CC1(C)C(=O)C(C(=O)c2ccc(C(F)(F)F)c(N3CCSCC3)n2)=C(O)C(C)(C)C1=O` [Compound 2.078] the “Pre-emergence action: Amaranthus” value was 8. `CC1(C)C(=O)C(C(=O)c2ccc(C(F)(F)F)c(C3(C)OCCO3)n2)=C(O)C(C)(C)C1=O` [Compound 2.191] was tested, and the “Pre-emergence action: Amaranthus” value was 7. For `Cc1nc(C(=O)C2=C(O)C(C)(C)C(=O)C(C)(C)C2=O)ccc1C#N` [Compound 2.209], the “Pre-emergence action: Amaranthus” value was 9.

The molecules below were run on Xanthium (assay: Post-emergence herbicidal action (Example B2)). Conditions: 250 g/ha, after about 18 days, rating scale 10=total damage, 0=no action.
Assay type: in vivo
Text: (§2) Monocotyledonous and dicotyledonous test plants are cultivated in a greenhouse in standard soil in plastic pots and, at the 4- to 6-leaf stage, are sprayed with an aqueous suspension of the test compounds of formula I prepared from a 25% wettable powder (Example F3, b) according to WO 97/34485) or with an emulsion of the test compounds of formula I prepared from a 25% emulsifiable concentrate (Example F1, c) according to WO 97/34485), corresponding to concentrations of 125 and 250 g of active ingredient per hectare (500 litres of water per ha). The test plants are then grown on in the greenhouse under optimum conditions. After a test duration of about 18 days, the test is evaluated in accordance with a scale of eleven ratings (10=total damage, 0=no action). Ratings of from 10 to 7 (especially from 10 to 8) indicate very good to good herbicidal action.
For `CC1(C)C(=O)C(C(=O)c2ccc(C(F)(F)F)c(N3CCSCC3)n2)=C(O)C(C)(C)C1=O` [Compound 2.078], the “Post-emergence action: Xanthium” value was 7. In the case of `CC1(C)C(=O)C(C(=O)c2ccc(C(F)(F)F)c(C3(C)OCCO3)n2)=C(O)C(C)(C)C1=O` [Compound 2.191], the “Post-emergence action: Xanthium” value is reported as 8. In the case of `Cc1nc(C(=O)C2=C(O)C(C)(C)C(=O)C(C)(C)C2=O)ccc1C#N` [Compound 2.209], the “Post-emergence action: Xanthium” value is reported as 9.

What follows are molecules tested on Panicum (assay: Post-emergence herbicidal action (Example B2)). Conditions: 250 g/ha, after about 18 days, rating scale 10=total damage, 0=no action.
Assay type: in vivo
Text: as §2
With `CC1(C)C(=O)C(C(=O)c2ccc(C(F)(F)F)c(N3CCSCC3)n2)=C(O)C(C)(C)C1=O` [Compound 2.078] the “Post-emergence action: Panicum” value was 5. In the case of `CC1(C)C(=O)C(C(=O)c2ccc(C(F)(F)F)c(C3(C)OCCO3)n2)=C(O)C(C)(C)C1=O` [Compound 2.191], the “Post-emergence action: Panicum” value is reported as 9. `Cc1nc(C(=O)C2=C(O)C(C)(C)C(=O)C(C)(C)C2=O)ccc1C#N` [Compound 2.209] was tested, and the “Post-emergence action: Panicum” value was 9.

The molecules below were run on Echinochloa (assay: Post-emergence herbicidal action (Example B2)). Conditions: 250 g/ha, after about 18 days, rating scale 10=total damage, 0=no action.
Assay type: in vivo
Text: as §2
With `CC1(C)C(=O)C(C(=O)c2ccc(C(F)(F)F)c(N3CCSCC3)n2)=C(O)C(C)(C)C1=O` [Compound 2.078] the “Post-emergence action: Echinochloa” value was 8. With `CC1(C)C(=O)C(C(=O)c2ccc(C(F)(F)F)c(C3(C)OCCO3)n2)=C(O)C(C)(C)C1=O` [Compound 2.191] the “Post-emergence action: Echinochloa” value was 8. `Cc1nc(C(=O)C2=C(O)C(C)(C)C(=O)C(C)(C)C2=O)ccc1C#N` [Compound 2.209] was tested, and the “Post-emergence action: Echinochloa” value was 8.

The molecules below were run on Euphorbia (assay: Post-emergence herbicidal action (Example B2)). Conditions: 250 g/ha, after about 18 days, rating scale 10=total damage, 0=no action.
Assay type: in vivo
Text: as §2
`CC1(C)C(=O)C(C(=O)c2ccc(C(F)(F)F)c(N3CCSCC3)n2)=C(O)C(C)(C)C1=O` [Compound 2.078] was tested, and the “Post-emergence action: Euphorbia” value was 7. `CC1(C)C(=O)C(C(=O)c2ccc(C(F)(F)F)c(C3(C)OCCO3)n2)=C(O)C(C)(C)C1=O` [Compound 2.191] was tested, and the “Post-emergence action: Euphorbia” value was 8. `Cc1nc(C(=O)C2=C(O)C(C)(C)C(=O)C(C)(C)C2=O)ccc1C#N` [Compound 2.209] was tested, and the “Post-emergence action: Euphorbia” value was 8.

The molecules below were run on Chenopodium (assay: Post-emergence herbicidal action (Example B2)). Conditions: 250 g/ha, after about 18 days, rating scale 10=total damage, 0=no action.
Assay type: in vivo
Text: as §2
`CC1(C)C(=O)C(C(=O)c2ccc(C(F)(F)F)c(N3CCSCC3)n2)=C(O)C(C)(C)C1=O` [Compound 2.078] was tested, and the “Post-emergence action: Chenopodium” value was 10. For `CC1(C)C(=O)C(C(=O)c2ccc(C(F)(F)F)c(C3(C)OCCO3)n2)=C(O)C(C)(C)C1=O` [Compound 2.191], the “Post-emergence action: Chenopodium” value was 7. With `Cc1nc(C(=O)C2=C(O)C(C)(C)C(=O)C(C)(C)C2=O)ccc1C#N` [Compound 2.209] the “Post-emergence action: Chenopodium” value was 6.

These molecules were tested on Stellaria (assay: Post-emergence herbicidal action (Example B2)). Conditions: 250 g/ha, after about 18 days, rating scale 10=total damage, 0=no action.
Assay type: in vivo
Text: as §2
`CC1(C)C(=O)C(C(=O)c2ccc(C(F)(F)F)c(N3CCSCC3)n2)=C(O)C(C)(C)C1=O` [Compound 2.078] was tested, and the “Post-emergence action: Stellaria” value was 10. With `CC1(C)C(=O)C(C(=O)c2ccc(C(F)(F)F)c(C3(C)OCCO3)n2)=C(O)C(C)(C)C1=O` [Compound 2.191] the “Post-emergence action: Stellaria” value was 10. `Cc1nc(C(=O)C2=C(O)C(C)(C)C(=O)C(C)(C)C2=O)ccc1C#N` [Compound 2.209] was tested, and the “Post-emergence action: Stellaria” value was 10.

What follows are molecules tested on Amaranthus (assay: Post-emergence herbicidal action (Example B2)). Conditions: 250 g/ha, after about 18 days, rating scale 10=total damage, 0=no action.
Assay type: in vivo
Text: as §2
In the case of `CC1(C)C(=O)C(C(=O)c2ccc(C(F)(F)F)c(N3CCSCC3)n2)=C(O)C(C)(C)C1=O` [Compound 2.078], the “Post-emergence action: Amaranthus” value is reported as 7. With `CC1(C)C(=O)C(C(=O)c2ccc(C(F)(F)F)c(C3(C)OCCO3)n2)=C(O)C(C)(C)C1=O` [Compound 2.191] the “Post-emergence action: Amaranthus” value was 3. For `Cc1nc(C(=O)C2=C(O)C(C)(C)C(=O)C(C)(C)C2=O)ccc1C#N` [Compound 2.209], the “Post-emergence action: Amaranthus” value was 8.
